Experimental data reported in ChEMBL document CHEMBL2413072, “Synthesis and in vitro anticancer studies of novel C-2 arylidene congeners of lantadenes” (2013).

Columns and labels:
Type in all cases: functional
MDA-MB-468 [1] = test: Growth inhibition of human MDA-MB-468 cells assessed as growth inhibition at 10 uM by sulforhodamine B assay; conditions: read-out: GI
SN12C = test: Growth inhibition of human SN12C cells assessed as growth inhibition at 10 uM by sulforhodamine B assay; conditions: read-out: GI
ACHN = test: Growth inhibition of human ACHN cells assessed as growth inhibition at 10 uM by sulforhodamine B assay; conditions: read-out: GI
786-0 = test: Growth inhibition of human 786-0 cells assessed as growth inhibition at 10 uM by sulforhodamine B assay; conditions: read-out: GI
OVCAR-8 [2] = test: Growth inhibition of human OVCAR8 cells assessed as growth inhibition at 10 uM by sulforhodamine B assay; conditions: read-out: GI
HL-60(TB) = test: Growth inhibition of human HL-60(TB) cells assessed as cell growth at 10 uM by sulforhodamine B assay; conditions: read-out: Activity
OVCAR-5 = test: Growth inhibition of human OVCAR5 cells assessed as growth inhibition at 10 uM by sulforhodamine B assay; conditions: read-out: GI
OVCAR-4 [3] = test: Growth inhibition of human OVCAR4 cells assessed as growth inhibition at 10 uM by sulforhodamine B assay; conditions: read-out: GI
OVCAR-3 = test: Growth inhibition of human OVCAR3 cells assessed as growth inhibition at 10 uM by sulforhodamine B assay; conditions: read-out: GI
UACC-62 = test: Growth inhibition of human UACC62 cells assessed as growth inhibition at 10 uM by sulforhodamine B assay; conditions: read-out: GI
SK-MEL-5 = test: Growth inhibition of human SK-MEL-5 cells assessed as growth inhibition at 10 uM by sulforhodamine B assay; conditions: read-out: GI
LOX IMVI = test: Growth inhibition of human LOXIMVI cells assessed as growth inhibition at 10 uM by sulforhodamine B assay; conditions: read-out: GI
Malme-3M [4] = test: Growth inhibition of human MALME-3M cells assessed as growth inhibition at 10 uM by sulforhodamine B assay; conditions: read-out: GI
SF-295 [5] = test: Growth inhibition of human SF295 cells assessed as growth inhibition at 10 uM by sulforhodamine B assay; conditions: read-out: GI
HCT-15 [6] = test: Growth inhibition of human HCT15 cells assessed as growth inhibition at 10 uM by sulforhodamine B assay; conditions: read-out: GI
HCT-116 [7] = test: Growth inhibition of human HCT116 cells assessed as growth inhibition at 10 uM by sulforhodamine B assay; conditions: read-out: GI
NCI-H460 = test: Growth inhibition of human NCI-H460 cells assessed as growth inhibition at 10 uM by sulforhodamine B assay; conditions: read-out: GI
NCI-H322M = test: Growth inhibition of human NCI-H322M cells assessed as growth inhibition at 10 uM by sulforhodamine B assay; conditions: read-out: GI
NCI-H226 = test: Growth inhibition of human NCI-H226 cells assessed as growth inhibition at 10 uM by sulforhodamine B assay; conditions: read-out: GI
HOP-62 [8] = test: Growth inhibition of human HOP62 cells assessed as growth inhibition at 10 uM by sulforhodamine B assay; conditions: read-out: GI
RPMI-8226 [9] = test: Growth inhibition of human RPMI8226 cells assessed as growth inhibition at 10 uM by sulforhodamine B assay; conditions: read-out: GI
MOLT-4 = test: Growth inhibition of human MOLT4 cells assessed as growth inhibition at 10 uM by sulforhodamine B assay; conditions: read-out: GI
K562 = test: Growth inhibition of human K562 cells assessed as growth inhibition at 10 uM by sulforhodamine B assay; conditions: read-out: GI
MDA-MB-468 [10] = test: Growth inhibition of human MDA-MB-468 cells assessed as cell growth at 10 uM by sulforhodamine B assay; conditions: read-out: Activity
UO-31 = test: Growth inhibition of human UO31 cells assessed as cell growth at 10 uM by sulforhodamine B assay; conditions: read-out: Activity
TK-10 = test: Growth inhibition of human TK10 cells assessed as cell growth at 10 uM by sulforhodamine B assay; conditions: read-out: Activity
A498 = test: Growth inhibition of human A498 cells assessed as cell growth at 10 uM by sulforhodamine B assay; conditions: read-out: Activity
SK-OV-3 = test: Growth inhibition of human SKOV3 cells assessed as cell growth at 10 uM by sulforhodamine B assay; conditions: read-out: Activity
[11] = Growth inhibition of human NCI-ADR-RES cells assessed as cell growth at 10 uM by sulforhodamine B assay; conditions: read-out: Activity
OVCAR-8 [12] = test: Growth inhibition of human OVCAR8 cells assessed as cell growth at 10 uM by sulforhodamine B assay; conditions: read-out: Activity
OVCAR-4 [13] = test: Growth inhibition of human OVCAR4 cells assessed as cell growth at 10 uM by sulforhodamine B assay; conditions: read-out: Activity
IGROV-1 = test: Growth inhibition of human IGROV1 cells assessed as cell growth at 10 uM by sulforhodamine B assay; conditions: read-out: Activity
UACC-257 = test: Growth inhibition of human UACC257 cells assessed as cell growth at 10 uM by sulforhodamine B assay; conditions: read-out: Activity
SK-MEL-28 = test: Growth inhibition of human SK-MEL-28 cells assessed as cell growth at 10 uM by sulforhodamine B assay; conditions: read-out: Activity
MDA-MB-435 = test: Growth inhibition of human MDA-MB-435 cells assessed as cell growth at 10 uM by sulforhodamine B assay; conditions: read-out: Activity
Malme-3M [14] = test: Growth inhibition of human MALME-3M cells assessed as cell growth at 10 uM by sulforhodamine B assay; conditions: read-out: Activity
SNB-75 = test: Growth inhibition of human SNB75 cells assessed as cell growth at 10 uM by sulforhodamine B assay; conditions: read-out: Activity
SF-295 [15] = test: Growth inhibition of human SF295 cells assessed as cell growth at 10 uM by sulforhodamine B assay; conditions: read-out: Activity
SW-620 = test: Growth inhibition of human SW620 cells assessed as cell growth at 10 uM by sulforhodamine B assay; conditions: read-out: Activity
HCT-15 [16] = test: Growth inhibition of human HCT15 cells assessed as cell growth at 10 uM by sulforhodamine B assay; conditions: read-out: Activity
HCT-116 [17] = test: Growth inhibition of human HCT116 cells assessed as cell growth at 10 uM by sulforhodamine B assay; conditions: read-out: Activity
[18] = Growth inhibition of human HCC2998 cells assessed as cell growth at 10 uM by sulforhodamine B assay; conditions: HCC 2998, read-out: Activity
COLO 205 = test: Growth inhibition of human COLO205 cells assessed as cell growth at 10 uM by sulforhodamine B assay; conditions: read-out: Activity
NCI-H522 = test: Growth inhibition of human NCI-H522 cells assessed as cell growth at 10 uM by sulforhodamine B assay; conditions: read-out: Activity
HOP-62 [19] = test: Growth inhibition of human HOP62 cells assessed as cell growth at 10 uM by sulforhodamine B assay; conditions: read-out: Activity
A549 = test: Growth inhibition of human A549/ATCC cells assessed as cell growth at 10 uM by sulforhodamine B assay; conditions: read-out: Activity
SR = test: Growth inhibition of human SR cells assessed as cell growth at 10 uM by sulforhodamine B assay; conditions: read-out: Activity
RPMI-8226 [20] = test: Growth inhibition of human RPMI8226 cells assessed as cell growth at 10 uM by sulforhodamine B assay; conditions: read-out: Activity

## CC(C)=CC(=O)O[C@@H]1CC(C)(C)C[C@H]2C3=CC[C@@H]4[C@@]5(C)CC[C@H](O)C(C)(C)[C@@H]5CC[C@@]4(C)[C@]3(C)CC[C@@]12C(=O)O [Reduced Lantadene B]
MDA-MB-468 [1]
  inhibition of growth at 10 µM: < 10%
SN12C
  inhibition of growth at 10 µM: 49.1%
ACHN
  inhibition of growth at 10 µM: 53.7%
786-0
  inhibition of growth at 10 µM: 38.2%
OVCAR-8 [2]
  inhibition of growth at 10 µM: 40.1%
HL-60(TB)
  growth at 10 µM: 14%
OVCAR-5
  inhibition of growth at 10 µM: < 10%
OVCAR-4 [3]
  inhibition of growth at 10 µM: 29.3%
OVCAR-3
  inhibition of growth at 10 µM: 26.1%
UACC-62
  inhibition of growth at 10 µM: 32.8%
SK-MEL-5
  inhibition of growth at 10 µM: 38.5%
LOX IMVI
  inhibition of growth at 10 µM: 46.8%
Malme-3M [4]
  inhibition of growth at 10 µM: < 10%
SF-295 [5]
  inhibition of growth at 10 µM: 55.4%
HCT-15 [6]
  inhibition of growth at 10 µM: 74.9%
HCT-116 [7]
  inhibition of growth at 10 µM: 72.8%
NCI-H460
  inhibition of growth at 10 µM: 49.7%
NCI-H322M
  inhibition of growth at 10 µM: 40.3%
NCI-H226
  inhibition of growth at 10 µM: 21.3%
HOP-62 [8]
  inhibition of growth at 10 µM: 46.3%
RPMI-8226 [9]
  inhibition of growth at 10 µM: 76.3%
MOLT-4
  inhibition of growth at 10 µM: 50.4%
K562
  inhibition of growth at 10 µM: 54.8%
MDA-MB-468 [10]
  growth at 10 µM: 113%
UO-31
  growth at 10 µM: 60.9%
TK-10
  growth at 10 µM: 79.9%
A498
  growth at 10 µM: 100%
SK-OV-3
  growth at 10 µM: 89.4%
[11]
  growth at 10 µM: 54.5%
OVCAR-8 [12]
  growth at 10 µM: 59.9%
OVCAR-4 [13]
  growth at 10 µM: 70.7%
IGROV-1
  growth at 10 µM: 78.3%
UACC-257
  growth at 10 µM: 92.7%
SK-MEL-28
  growth at 10 µM: 88.3%
MDA-MB-435
  growth at 10 µM: 95.3%
Malme-3M [14]
  growth at 10 µM: 96.7%
SNB-75
  growth at 10 µM: 73.2%
SF-295 [15]
  growth at 10 µM: 44.6%
SW-620
  growth at 10 µM: 66.9%
HCT-15 [16]
  growth at 10 µM: 25.1%
HCT-116 [17]
  growth at 10 µM: 27.2%
[18]
  growth at 10 µM: 62%
COLO 205
  growth at 10 µM: 68.1%
NCI-H522
  growth at 10 µM: 67.7%
HOP-62 [19]
  growth at 10 µM: 53.7%
A549
  growth at 10 µM: 23.5%
SR
  growth at 10 µM: 70.2%
RPMI-8226 [20]
  growth at 10 µM: 23.7%
